Experimental data from PubChem BioAssay AID256 (DTP/NCI, 2004).
Toxic doses and inconclusive results are not listed. The calls were made as follows: active = survival T/C of 150% or more; inactive = T/C below 125% in these data.

Test system: CD2F1 mice, L1210 leukemia ip, survival T/C
Assay: NCI In Vivo Anticancer Drug Screen. Data for tumor model L1210 Leukemia (intraperitoneal) in CD2F1 (CDF1) mice
Conditions: endpoint: mean survival time, higher = longer survival
How it was run: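 Vehicle-treated tumor-bearing mice served as controls (C) for compound-treated mice (T). Reported figure is T divided by C.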

[1] = dose: 100.0 mg/kg/injection, schedule: Q04DX002 (ip), vehicle: saline with Tween-80
[2] = dose: 200.0 mg/kg/injection, schedule: Q04DX002 (ip), vehicle: saline with Tween-80
[3] = dose: 100.0 mg/kg/injection, schedule: Q01DX009 (ip), vehicle: saline with Tween-80
[4] = dose: 200.0 mg/kg/injection, schedule: Q01DX009 (ip), vehicle: saline with Tween-80
[5] = dose: 100.0 mg/kg/injection, schedule: Q04DX003 (ip), vehicle: saline with Tween-80
[6] = dose: 200.0 mg/kg/injection, schedule: Q04DX003 (ip), vehicle: saline with Tween-80
[7] = dose: 100.0 mg/kg/injection, schedule: Q04DX003 (ip), vehicle: saline
[8] = dose: 200.0 mg/kg/injection, schedule: Q04DX003 (ip), vehicle: saline
[9] = dose: 400.0 mg/kg/injection, schedule: Q04DX003 (ip), vehicle: saline
[10] = dose: 100.0 mg/kg/injection, schedule: Q01DX001 (ip), vehicle: saline with Tween-80
[11] = dose: 200.0 mg/kg/injection, schedule: Q01DX001 (ip), vehicle: saline with Tween-80
[12] = dose: 400.0 mg/kg/injection, schedule: Q01DX001 (ip), vehicle: saline with Tween-80
[13] = dose: 50.0 mg/kg/injection, schedule: Q04DX002 (ip), vehicle: saline with Tween-80

Measured: T/C

COC(=O)c1cccn1C(=O)c1ccc(C)c(OCc2ccccc2)c1[N+](=O)[O-]
inactive: [1] 86 % of control | [2] 93 % of control | dose: 400.0 mg/kg/injection, schedule: Q04DX002 (ip), vehicle: saline with Tween-80 93 % of control

COc1cc2ccc(/C(C)=N/OC(C)=O)cc2cc1OC
inactive: [3] 100 % of control | [4] 102 % of control | dose: 400.0 mg/kg/injection, schedule: Q01DX009 (ip), vehicle: saline with Tween-80 97 % of control

COc1cc2c3cc1Oc1c(OC)c(OC)cc4c1C(Cc1ccc(O)c(c1)Oc1ccc(cc1)CC3N(C)CC2)CN(C)C4 (stereo not given)
inactive: [5] 101 % of control | [6] 93 % of control

O=C1CCC(=O)N1O
inactive: dose: 100.0 mg/kg/injection, schedule: Q01DX001 (ip), vehicle: saline 104 % of control | [7] 100 % of control | dose: 200.0 mg/kg/injection, schedule: Q01DX001 (ip), vehicle: saline 103 % of control | [8] 102 % of control | dose: 400.0 mg/kg/injection, schedule: Q01DX001 (ip), vehicle: saline 103 % of control | [9] 98 % of control

CCOC1OC(COC(C)=O)C(OC(C)=O)C(OC(C)=O)C1OC(C)=O (stereo not given)
inactive: [10] 94 % of control | [11] 97 % of control | [12] 96 % of control

CC(C)(C)C(=O)C#Cc1ccccc1
inactive: dose: 25.0 mg/kg/injection, schedule: Q01DX009 (ip), vehicle: saline 94 % of control | dose: 50.0 mg/kg/injection, schedule: Q01DX009 (ip), vehicle: saline 97 % of control

CC(=O)Nc1ccc(SCCCc2c(N)nc(N)nc2N)cc1
inactive: [10] 100 % of control | [11] 100 % of control

CCCNC(=O)Nc1ccc(C(=O)OCC(C)C)cc1
inactive: [7] 93 % of control | [8] 95 % of control | [9] 104 % of control

Oc1c(Cl)cc(C(c2cc(Cl)c(O)c(Cl)c2)C(c2cc(Cl)c(O)c(Cl)c2)c2cc(Cl)c(O)c(Cl)c2)cc1Cl
inactive: dose: 12.5 mg/kg/injection, schedule: Q01DX009 (ip), vehicle: Klucel (hydroxypropylcellulose) (HPC) 95 % of control | dose: 25.0 mg/kg/injection, schedule: Q01DX009 (ip), vehicle: Klucel (hydroxypropylcellulose) (HPC) 97 % of control | dose: 50.0 mg/kg/injection, schedule: Q01DX009 (ip), vehicle: Klucel (hydroxypropylcellulose) (HPC) 103 % of control | dose: 100.0 mg/kg/injection, schedule: Q01DX009 (ip), vehicle: Klucel (hydroxypropylcellulose) (HPC) 106 % of control | dose: 200.0 mg/kg/injection, schedule: Q01DX009 (ip), vehicle: Klucel (hydroxypropylcellulose) (HPC) 115 % of control | dose: 400.0 mg/kg/injection, schedule: Q01DX009 (ip), vehicle: Klucel (hydroxypropylcellulose) (HPC) 96 % of control

O=C(O)c1c[nH]c2ccc([N+](=O)[O-])cc2c1=O
inactive: dose: 50.0 mg/kg/injection, schedule: Q01DX001 (ip), vehicle: Klucel (hydroxypropylcellulose) (HPC) 104 % of control | dose: 100.0 mg/kg/injection, schedule: Q01DX001 (ip), vehicle: Klucel (hydroxypropylcellulose) (HPC) 120 % of control | [10] 93 % of control | [11] 89 % of control | [12] 86 % of control

CCC(CCC(C)C1CCC2C3CC=C4CC(OC(=O)CCC(=O)O)CCC4(C)C3CCC12C)C(C)C (stereo not given)
inactive: [5] 90 % of control | [6] 90 % of control | dose: 400.0 mg/kg/injection, schedule: Q04DX003 (ip), vehicle: saline with Tween-80 93 % of control

CCOc1ccc(OCC)c(NC(=O)Nc2ccccc2Cl)c1
inactive: dose: 25.0 mg/kg/injection, schedule: Q04DX002 (ip), vehicle: saline with Tween-80 94 % of control | [13] 94 % of control | [1] 90 % of control

N#CSCc1ccc(O)c(C(=O)O)c1
inactive: dose: 10.0 mg/kg/injection, schedule: Q01DX009 (ip), vehicle: saline with Tween-80 94 % of control | dose: 20.0 mg/kg/injection, schedule: Q01DX009 (ip), vehicle: saline with Tween-80 105 % of control | dose: 40.0 mg/kg/injection, schedule: Q01DX009 (ip), vehicle: saline with Tween-80 106 % of control

CC(C)(CCC(=O)O)C(=O)c1ccccc1
inactive: [13] 98 % of control | [1] 94 % of control | [2] 94 % of control

CC(=O)c1cc2ccccc2c2ccccc12
inactive: dose: 50.0 mg/kg/injection, schedule: Q01DX009 (ip), vehicle: saline with Tween-80 89 % of control | [3] 97 % of control | [4] 101 % of control
